Columns and labels:
IL-2Rαβγ = target: T1, IL-2Rαβγ (Homo sapiens, UniProt P01589+P14784+P31785); assay: U2OS cell-based assay kit for IL-2Rαβγ binding (DiscoverX)
T1 construct: host or cells: U2OS
T1 sequence (P01589 22-272): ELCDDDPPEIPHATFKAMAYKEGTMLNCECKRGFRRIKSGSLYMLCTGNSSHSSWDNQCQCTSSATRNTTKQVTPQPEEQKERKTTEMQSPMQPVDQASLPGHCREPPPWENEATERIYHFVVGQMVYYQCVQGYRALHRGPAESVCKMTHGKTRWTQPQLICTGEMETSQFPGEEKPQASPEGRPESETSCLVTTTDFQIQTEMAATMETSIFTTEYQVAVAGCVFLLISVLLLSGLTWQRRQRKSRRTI
T1 sequence (P14784 27-551): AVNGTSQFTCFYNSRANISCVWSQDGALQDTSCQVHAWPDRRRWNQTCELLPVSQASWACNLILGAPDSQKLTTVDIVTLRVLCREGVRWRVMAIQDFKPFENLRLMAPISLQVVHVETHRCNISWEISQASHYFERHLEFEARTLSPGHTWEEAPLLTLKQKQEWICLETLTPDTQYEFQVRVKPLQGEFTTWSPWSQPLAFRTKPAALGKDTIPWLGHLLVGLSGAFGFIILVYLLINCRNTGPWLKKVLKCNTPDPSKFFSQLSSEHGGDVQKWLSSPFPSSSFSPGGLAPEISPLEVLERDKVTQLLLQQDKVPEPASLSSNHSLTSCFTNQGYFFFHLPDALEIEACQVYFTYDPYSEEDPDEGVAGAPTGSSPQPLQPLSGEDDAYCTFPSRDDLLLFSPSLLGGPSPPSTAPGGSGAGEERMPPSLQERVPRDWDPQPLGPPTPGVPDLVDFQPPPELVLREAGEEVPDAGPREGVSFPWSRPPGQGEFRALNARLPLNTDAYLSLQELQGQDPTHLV
T1 sequence (P31785 23-369): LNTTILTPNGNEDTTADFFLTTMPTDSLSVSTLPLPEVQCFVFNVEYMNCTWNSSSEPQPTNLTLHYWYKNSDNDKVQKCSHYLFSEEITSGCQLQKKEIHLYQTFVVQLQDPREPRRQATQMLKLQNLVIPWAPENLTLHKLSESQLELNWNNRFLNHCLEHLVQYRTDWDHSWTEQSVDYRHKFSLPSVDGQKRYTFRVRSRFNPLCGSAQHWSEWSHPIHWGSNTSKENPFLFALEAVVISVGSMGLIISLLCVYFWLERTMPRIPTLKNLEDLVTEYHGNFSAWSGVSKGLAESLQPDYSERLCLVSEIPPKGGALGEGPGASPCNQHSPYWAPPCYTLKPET
Protocol: (§1) IL-2[N88R,C125S] was prepared by expression in HEK cells. Cell-based receptor binding assays were performed to evaluate the activity of the mutein against the high-affinity αβγ trimeric (Treg) and intermediate affinity βγ dimeric (Teff) forms of the IL-2 receptor (Table 1). The mutein binds only 6-fold poorer than IL-2 to the IL-2Rαβγ but about 900-fold poorer to the IL-2Rβγ.
A U2OS cell-based assay kit for IL-2Rαβγ binding was performed according the manufacturer's instructions (DiscoverX, Part #93-1003E3CP0). Cells were plated at 100 μL (˜10,000 cells/well) in 96 well assay plates and grown for 24 hours at 37° C., 5% CO2. Cells were then treated for 6 hours at 37° C., 5% CO2 with dilution series of either WT IL-2, IL-2 N88R, C125S, or IL-2 N88R, C125S released from microspheres at pH 9.4. Eleven WT IL-2 concentrations were assayed between 2 pg/mL-100 ng/mL (0.1 pM-6 nM). Eleven IL-2 N88R, C125S and released IL-2 N88R, C125S concentrations were assayed between 200 pg/mL-10 μg/mL ([…]-600 nM). Treated cells were incubated with chemiluminescent substrate for 1 hour at ambient temperature in the dark, then luminescence was read with a Spectramax i3 plate reader with 250 ms integration time.

[1] = system: T-cells in the spleen and islets; assay: Pharmacodynamics of IL2 and IL2[N88R,C125S] in NOD mice (flow cytometry of spleen and islets); type: in vivo; details: daily injections 25,000 units for five days
Protocol: Mice were sacrificed 2 hours after the last injection and the spleen and pancreas were harvested for flow cytometry analysis to measure changes in total number of T-cells and their differentiation in the spleen and islets.

IL-2Rβγ = target: T2, IL-2Rβγ (Homo sapiens, UniProt P14784+P31785); assay: U2OS cell-based assay kit for IL-2Rβγ binding (DiscoverX); details: mutein vs WT IL-2
T2 construct: host or cells: U2OS
T2 sequence (P14784 27-551): T1 sequence (P14784 27-551)
T2 sequence (P31785 23-369): T1 sequence (P31785 23-369)
Protocol: as §1
A U2OS cell-based assay kit for IL-2Rβγ binding was performed according the manufacturer's instructions (DiscoverX, Part #93-0998E3CP5). Cells were plated at 50 μL (˜5,000 cells/well) in 96 well assay plates and grown for 48 hours at 37° C., 5% CO2. Cells were then treated for 6 hours at 37° C., 5% CO2 with dilution series of either WT IL-2, IL-2 N88R, C125S, or IL-2 N88R, C125S released from microspheres at pH 9.4. Eleven WT IL-2 concentrations were assayed between 17 pg/mL-1 μg/mL (1 pM-61 nM). Eleven IL-2 N88R, C125S concentrations were assayed between 1.7 ng/mL-100 μg/mL ([…]-6 μM). Eleven released remnant IL-2 N88R, C125S concentrations were assayed between 170 pg/mL-10 μg/mL ([…]-600 nM). Treated cells were incubated with chemiluminescent substrate for 1 hour at ambient temperature in the dark, then luminescence was read with a Spectramax i3 plate reader with 250 ms integration time.

[2] = in vivo; cited from earlier work
[3] = system: CD8+ memory T cells and NK cells in PBMCs; assay: Pharmacodynamics of [aminopropyl]-RLI released from microsphere conjugate; type: in vivo, C57Black mice
Protocol: The pharmacodynamics of the MS-RLI conjugate (34 μg, 1.5 nmol) was compared to that of empty MSs, and free RLI (2.5 μg, QDx4) in C57Black mice (n=5/group). Blood draws were taken over 13 days and the PBMCs surface stained using general laboratory procedures. Fixation and intracellular staining followed protocols from the eBioscience Foxp3/Transcription Factor Staining Buffer Set (ThermoFisher Scientific). Commercial antibodies used were against NK1.1, CD3, CD8, CD19, CD44 and Ki-67 expressing cells. Stained single cell suspension were analyzed using a LSRII flow cytometer (BD Biosciences) and analyzed using FlowJo cytometry analysis software (TreeStar, Ashland, Oreg.). Cell populations of particular interest were CD8+ memory T cells (CD44^hiCD8+), natural killer (CD3-NK1.1+) cells, proliferating CD8+ memory T cells (CD44^hiCD8+Ki-67+), and proliferating natural killer (CD3-NK1.1+Ki-67+) cells.

Row | Substance | Fold-change βγ EC50 vs αβγ EC50 (selectivity for IL-2Rαβγ vs IL-2Rβγ) (IL-2Rαβγ) | effect on CD4+ and CD8+ effector/memory T-cells in the spleen [1] | effect on the T-cells in the islets compared to PBS vehicle [1] | Fold-change of βγ EC50 vs WT IL-2 (fold poorer binding) (IL-2Rβγ) | half-life of free RLI [2] | day of return of CD44hiCD8+ T cells to baseline levels ([3]; 2.5 μg QDx4) | fold increase in the percentage of NK cells in the PBMCs ([3]; MS-RLI 34 μg single, free RLI 2.5 μg QDx4) | time post treatment at which increase in CD44hiCD8+ T cells was noticeable ([3]; MS-RLI 34 μg single, native RLI 2.5 μg QDx4)
1 | IL-2 N88R, C125S: IL-2 mutein, SEQ ID No: 3, prepared by expression in HEK cells | over 3,000 fold | little to no effect | little to no effect | about 900 fold |  |  |  | 
2 | RLI: receptor-linked interleukin: fusion protein comprising IL-15 and the sushi-domain of the receptor α-subunit, SEQ ID No: 16 |  |  |  |  | 3 h | ≤ 7 days | ~4 fold | 5 days

Reference: patent US20220193253A1, “SLOW-RELEASE CYTOKINE CONJUGATES” (ProLynx LLC, priority 2019, published 2022)
